US7772216B2, “Protein kinase and phosphatase inhibitors and methods for designing them” (The Research Foundation of State University of New York, priority 2001, dated 2010)
Like-named read-outs stand apart in the source and are kept apart here. One block for each compound: values may come before it.

What was measured:
[1] = SCID, mouse, in vivo, ip
[2] = target: T1, PTP-1B (Homo sapiens, UniProt P18031); test: PTP-1B inhibition; type: biochemical; details: % inhibition at 10 micromolar compound
T1 sequence (P18031 1-435): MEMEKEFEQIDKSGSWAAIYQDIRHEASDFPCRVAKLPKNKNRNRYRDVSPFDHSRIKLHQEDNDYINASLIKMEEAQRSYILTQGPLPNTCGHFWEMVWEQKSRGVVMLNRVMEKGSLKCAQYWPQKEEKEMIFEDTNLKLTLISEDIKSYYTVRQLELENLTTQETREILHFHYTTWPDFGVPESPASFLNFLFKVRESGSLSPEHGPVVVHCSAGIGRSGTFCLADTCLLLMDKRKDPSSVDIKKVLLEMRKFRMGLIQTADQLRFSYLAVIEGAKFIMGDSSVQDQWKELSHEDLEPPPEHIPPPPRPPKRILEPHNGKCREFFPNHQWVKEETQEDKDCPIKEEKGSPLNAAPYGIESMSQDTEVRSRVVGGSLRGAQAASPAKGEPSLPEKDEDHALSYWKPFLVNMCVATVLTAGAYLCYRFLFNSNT
From the text: (§1) Blanks for a particular enzyme indicate that inhibition was not found.

[3] = target: EGFRTK (Homo sapiens, UniProt P00533); test: EGFRTK inhibition; type: biochemical; details: % inhibition at 10 micromolar compound
From the text: as §1

[4] = target: T2, p56 lck (Homo sapiens, UniProt P06239); test: p56 lck inhibition; type: biochemical; details: % inhibition at 10 micromolar compound
From the text: as §1

[5] = tested on: LA25 cells; test: LA25 (ts pp60^v-src transformed NRK) cell growth; type: cell-based, rat
Experimental: (§2) Active Src inhibitors can be studied in a set of side-by-side cell-based assays using normal rat kidney (NRK) cells and a temperature-sensitive pp60^v-Src transformant of this cell line (LA25). The LA25 transformant engages in anchorage- and serum-independent growth at the “permissive” temperature of 33° C. due to activation of pp60^v-src but not at the “non-permissive” temperature of 40° C. at which pp60^v-src is not activated (Li et al., 1996). The use of this pair of closely related cell lines for testing the Src inhibitors at both the permissive and non-permissive temperatures allows one to determine if a given Src inhibitor is blocking cell growth due to specific blockade of the Src signaling pathway, by a different mechanism or by a general cytotoxic effect.
(§3) As shown in this graph the growth of the LA25 cells at the permissive temperature of 33° C. is inhibited by ca. 50% at a 25 μM concentration of 43-meta relative to the LA25 cell growth at the non-permissive 40° C. as a control. […] Since the 43-meta solutions were prepared with a low concentration of DMSO for solubilization, a DMSO control was also run at the same concentration.

[6] = tested on: NRK cells; test: Normal rat kidney (NRK) cell growth; type: cell-based
Experimental: as §2, §3

[7] = tested on: PC-3; test: NIH 60-tumor cell panel, PC-3; type: cell-based; details: Homo sapiens, NIH prostate cancer cell line, read-out: growth inhibition IC50, PC-3
From the text: The initial non-peptide Src inhibitors have also shown very encouraging results in four different series of cell culture assays. 1) In the NIH 60-tumor cell panel assay, broad activity (as one would expect for a Src inhibitor) was seen against the tumor cell lines, including the prostate lines. […] 3) The Src inhibitors were compared to the cancer drugs etoposide, taxol, doxorubicin and cisplatin in ovarian tumors from three different patients and an abdominal carcinoma from another patient. […] 5) Two of the Src inhibitors were also tested for inhibition of ts v-Src stimulated LA25 cell growth. […] 6) Two of the Src inhibitors were also tested for inhibition of normal rat kidney cell growth. The results are shown in FIG. 16D and illustrate that the inhibitors are cytoprotective for normal cells.

[8] = target: T3, pp60^c-src (Homo sapiens, UniProt P12931); test: Cellular Mimetic Src assay (RR-SRC phosphorylation)
Target sequence in this assay (P12931 whole entry): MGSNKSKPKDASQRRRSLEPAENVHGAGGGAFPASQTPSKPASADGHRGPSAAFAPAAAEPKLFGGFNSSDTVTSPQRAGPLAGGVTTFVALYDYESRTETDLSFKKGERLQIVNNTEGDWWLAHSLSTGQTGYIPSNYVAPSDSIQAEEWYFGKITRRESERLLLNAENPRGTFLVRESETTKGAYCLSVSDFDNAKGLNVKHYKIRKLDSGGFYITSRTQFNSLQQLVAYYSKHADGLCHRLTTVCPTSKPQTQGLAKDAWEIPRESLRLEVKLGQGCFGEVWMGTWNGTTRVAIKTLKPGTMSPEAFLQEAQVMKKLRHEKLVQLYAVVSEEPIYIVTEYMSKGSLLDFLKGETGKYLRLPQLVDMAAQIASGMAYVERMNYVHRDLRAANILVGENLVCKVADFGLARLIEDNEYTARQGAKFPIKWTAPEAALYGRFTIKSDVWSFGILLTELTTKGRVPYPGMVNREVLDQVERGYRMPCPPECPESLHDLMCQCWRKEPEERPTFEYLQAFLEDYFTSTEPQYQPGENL

[9] = target: T2, p56 lck; details: analyzed with the tyrosine kinase p56^lck; cited from earlier work
[10] = target: T3, pp60^c-src; details: literature value, cited from earlier work
Target sequence in this assay (P12931 whole entry, species assumed): as the sequence (P12931 whole entry) above

[11] = read-out: % Inhibition of 2 mM RR-src at Inhibitor Concentration (100 μM)

T2 sequence (P06239 whole entry, species assumed): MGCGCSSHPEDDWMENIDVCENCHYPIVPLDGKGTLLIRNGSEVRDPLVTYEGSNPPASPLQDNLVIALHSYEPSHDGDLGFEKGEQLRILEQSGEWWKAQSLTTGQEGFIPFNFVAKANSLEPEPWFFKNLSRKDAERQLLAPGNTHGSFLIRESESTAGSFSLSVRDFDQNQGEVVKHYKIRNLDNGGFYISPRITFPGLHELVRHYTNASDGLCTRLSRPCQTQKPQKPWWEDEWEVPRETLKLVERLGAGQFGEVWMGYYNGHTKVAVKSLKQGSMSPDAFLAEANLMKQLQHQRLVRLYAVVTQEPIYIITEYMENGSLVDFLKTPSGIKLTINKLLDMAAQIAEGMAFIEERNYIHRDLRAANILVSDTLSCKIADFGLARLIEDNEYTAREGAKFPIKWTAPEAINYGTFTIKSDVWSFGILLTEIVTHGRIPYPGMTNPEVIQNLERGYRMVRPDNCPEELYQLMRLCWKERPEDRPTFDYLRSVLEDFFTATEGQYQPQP
Sequence of EGFRTK (P00533 25-1210): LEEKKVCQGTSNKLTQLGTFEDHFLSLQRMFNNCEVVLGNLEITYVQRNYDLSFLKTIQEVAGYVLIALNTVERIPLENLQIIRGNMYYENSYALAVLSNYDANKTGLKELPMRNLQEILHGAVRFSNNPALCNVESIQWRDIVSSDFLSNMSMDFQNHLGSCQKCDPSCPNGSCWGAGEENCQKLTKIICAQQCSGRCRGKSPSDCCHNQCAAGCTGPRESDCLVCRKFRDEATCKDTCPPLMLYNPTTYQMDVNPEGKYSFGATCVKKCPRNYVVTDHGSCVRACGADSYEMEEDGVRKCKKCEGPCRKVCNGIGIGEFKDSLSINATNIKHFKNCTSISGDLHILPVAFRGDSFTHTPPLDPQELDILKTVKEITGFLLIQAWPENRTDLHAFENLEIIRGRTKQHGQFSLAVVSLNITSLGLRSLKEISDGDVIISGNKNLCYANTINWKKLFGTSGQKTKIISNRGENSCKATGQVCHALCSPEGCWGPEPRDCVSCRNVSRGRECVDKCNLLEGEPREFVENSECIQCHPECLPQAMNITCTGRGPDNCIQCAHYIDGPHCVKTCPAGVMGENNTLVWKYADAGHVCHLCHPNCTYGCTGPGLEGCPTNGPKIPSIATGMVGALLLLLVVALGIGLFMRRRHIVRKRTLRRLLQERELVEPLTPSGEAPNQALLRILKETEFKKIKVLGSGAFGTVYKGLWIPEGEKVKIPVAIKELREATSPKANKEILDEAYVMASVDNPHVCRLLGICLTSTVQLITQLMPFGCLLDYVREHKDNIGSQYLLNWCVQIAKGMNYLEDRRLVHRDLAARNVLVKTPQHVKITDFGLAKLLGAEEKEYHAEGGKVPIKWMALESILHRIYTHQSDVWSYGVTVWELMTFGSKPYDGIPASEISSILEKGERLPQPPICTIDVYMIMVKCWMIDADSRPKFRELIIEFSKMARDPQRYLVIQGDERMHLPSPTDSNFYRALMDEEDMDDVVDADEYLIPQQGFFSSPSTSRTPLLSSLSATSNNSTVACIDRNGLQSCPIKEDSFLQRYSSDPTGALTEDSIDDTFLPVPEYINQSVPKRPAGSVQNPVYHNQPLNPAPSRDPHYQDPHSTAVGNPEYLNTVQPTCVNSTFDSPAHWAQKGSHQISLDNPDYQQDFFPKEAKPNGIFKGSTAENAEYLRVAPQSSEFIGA

SMILES: O=C(NCc1cccc(O)c1)c1cc2cc(F)ccc2[nH]1 [Compound 1a]
toxicity in mice (weight loss) [1]: less toxic in mice than compound 2k from Example 4

PTP-1B @ 10 μm [2]: 20%
EGFRTK @ 10 μm [3]: 19%
SMILES: COc1ccc(NC(=O)c2cc3cc(F)ccc3[nH]2)cc1CO [Compound 1cccc]

p56 LcK @ 10 μm [4]: 12%
SMILES: O=C(Nc1ccccc1O)c1cc2cc(F)ccc2[nH]1 [Compound 1n]

EGFRTK @ 10 μm [3]: 33%
p56 LcK @ 10 μm [4]: 10%
SMILES: O=C(NCc1ccc(CO)cc1)c1cc2cc(F)ccc2[nH]1 [Compound 1oooo]

p56 LcK @ 10 μm [4]: 11%
SMILES: O=C(Nc1cc(O)cc(O)c1)c1cc2cc(F)ccc2[nH]1 [Compound 1r]

p56 LcK @ 10 μm [4]: 12%
SMILES: COc1cc(OC)c(CNC(=O)c2cc3cc(F)ccc3[nH]2)c(OC)c1 [Compound 1rr]

EGFRTK @ 10 μm [3]: 26%
melting point: 239 to 241 °C
SMILES: O=C(NCc1cccc(F)c1)c1cc2cc(F)ccc2[nH]1 [Compound 1z]

PTP-1B @ 10 μm [2]: 12%
SMILES: O=C(NCc1ccc(Cl)cc1)c1[nH]c2ccc(F)cc2c1-c1ccccc1 [Compound 2gg]

SMILES: O=C(Nc1cccc(O)c1)c1cc2ccc(O)cc2cc1O [Compound 43-meta]
inhibition of v-Src induced LA25 cell growth [5]: specifically blocked the v-Src induced cell growth
inhibition at 25 µM ([5]; Rattus norvegicus, NRK, 25 μM, permissive 33° C. relative to non-permissive 40° C.): ~50%
IC50 ([5]; Rattus norvegicus, NRK, read-out: IC50 for blocking pp60^v-src stimulated cell proliferation): ~25 µM
inhibition of normal rat kidney (parent non-transformed) cell growth [6]: without inhibiting the normal growth of the parent non-transformed cells
cell toxicity (basal growth of NRK and LA25 cells) ([6]; concentration increased up to 400 μM): lack of cell toxicity
IC50 [7]: 19 µM
IC50 [8]: 18 µM
Ki ([8]; K1, Table V): 10 µM
inhibition at 100 µM [8, 11]: 89%

IC50 [7]: 15 µM
IC50 [8]: 170 µM
mode of inhibition with respect to ATP ([8]; increasing ATP concentration up to 1 mM): 45 NON-ATP
inhibition at 100 µM [8, 11]: 51%
SMILES: O=C(Nc1cccc(O)c1)c1cc2cccc(O)c2cc1O [Compound 45]
inhibition of v-Src induced LA25 cell growth [5]: specifically blocked the v-Src induced cell growth
inhibition of normal rat kidney (parent non-transformed) cell growth [6]: without inhibiting the normal growth of the parent non-transformed cells

inhibition at 100 µM ([8]; read-out: % Inhibition at 100 μM (std. dev.)): 22%
SMILES: Cc1cc(O)c2c(c1)C(=O)c1cc(O)cc(O)c1C2=O [Emodin, reference compound]
mode of inhibition with respect to ATP [9]: ATP-competitive

% Inhibition at 100 μM (std. dev.) ([8]; Table IX, hydroxynaphthalene derivatives and published inhibitors): 37 (+/−5) %
SMILES: CCOc1cc(/C=C(\C#N)C(N)=O)cc(CSc2ccccc2)c1O [ST-638, reference compound]
IC50 ([10]; Table IX, read-out: IC50 (μM), Lit): 18 µM

inhibition at 100 µM [8, 11]: 37%
SMILES: CCOc1cc(/C=C(\C#N)C(N)=O)cc(CSc2ccccc2)c1O [drawing 65, ST 638, reference compound]
IC50 ([10]; Table V, read-out: Lit. IC50): 18 µM
